According to patent US8877264B2, “Composition of skin external application containing ginseng berry extracts” (Amorepacific Corporation, priority 2007, dated 2014):

Tests used:
human skin = assay: whitening effect on UVB-darkened human skin (colorimeter); type: in vivo; conditions: UVB-darkened upper arm, 10 weeks of application
[1] = test system: C57BL/6 mouse melanocytes (Mel-Ab cells); assay: melanin production inhibition in mouse melanocytes; type: cell-based; conditions: positive control, concentration not given
5-alpha-reductase = 5-alpha-reductase activity, testosterone to dihydrotestosterone; type: biochemical, rat; conditions: 100 μg extract per reaction
Protocol: Adult SD (Spraque-Dawley) male rats (7-8-week old) were sacrificed with diethyl ether, the abdominal prostate was extracted, and the connective tissue was removed. The prostate tissue was finely cut in buffer (0.32 M sucrose, 0.1 mM dithiothreitol and 20 mM sodium acetate), and was then suspended with a stirrer. The suspension was centrifuged, and the supernatant was collected. 5-alpha-reductase was partially purified from the supernatant in order to the activity thereof.
A portion of the above-collected supernatant was taken and placed in buffer containing 0.2 M monobasic acid and 0.2 M dibasic acid. Then, the solution was allowed to react with a ^3H-bound substrate (testosterone), and the production of the product dihydrotestosterone was measured.
The reaction solution contained 1 mM dithiothreitol, 40 mM sodium phosphate (pH 6.5), 50 μM NADPH, [1,2,6,7-^3H] testosterone/testosterone ([…]), 0.8 mg enzyme suspension and 565 μl protein.
The ginseng berry extract of Example 1 was dissolved in 10% ethanol and added in an amount of 100 μg extract/10 μl 10% ethanol per reaction. […]
The plastic sheet was dried in air, and then a VAS system was used to measure of isotopes. Specifically, the dried plastic sheet together with an X-ray film was placed in a VAS cassette, and after 1 week, the amounts of the testosterone and dihydrotestosterone isotopes remaining on the film were measured.

[2] = test system: lipogenesis in sebaceous glands; assay: lipogenesis inhibition in hamster ear tissue (C14 uptake); type: cell-based; conditions: 0.01% test material solution, 6 hours, average of 4 hamsters
Protocol: The degree of lipogenesis in sebaceous glands was evaluated by evaluating the inhibition of lipogenesis through the quantification of carbon uptake required for lipogenesis.
Specifically, the ear tissue of hamsters, having abundant sebaceous glands, was biopsied, and the degree of lipogenesis was evaluated by comparatively quantifying the control group and the test materials using a radioactivity meter in C14-labeled media for 6 hours. In the test material groups, the right ear tissue of hamsters was used and 0.01% test material solutions were added to the media, and in the control group, the left ear tissue of hamsters was used and 0.01% saline was added to the media.
Meanwhile, the inhibition (%) in Table 17 was calculated according to the following equation 4 and was expressed as the average of 4 hamsters. […] [Equation 4]

ceramide = assay: epidermal lipid (total ceramide) in human skin (TLC); type: in vivo; conditions: 5 wt % test material, twice every day, non-treated group = 100%
Protocol: In order to evaluate the effect of the ginseng berry extract of Example 1 on an increase in lipid synthesis in human skin, 0.5 wt % of Carbopol ETD 2020, 0.45% of TEA, 5 wt % of the test material and the balance of deionized water were used. On 12 adult men and women, a region corresponding to the diameter of a polypropylene conical tube was marked on the arm, and then was applied with 20 μl of each of control groups and the ginseng berry extract of Example 1 twice every day. The subjects were divided into two groups, and the production of lipid in the applied region was analyzed in the following manner by extracting lipid at day 3 and day 11. Specifically, the arm was washed with service water, and then subjected to tape stripping once with Scotch 810 Magic tape. Then, 1 ml of a mixture of cyclohexane/ethanol (4:1) was added to the tape using a cut 50-ml polypropylene conical tube as a reservoir and stirred for about 1 minute, and then the solution was transferred into a fresh tube. Then, the tape was treated with 1 ml of a mixture of cyclohexane/ethanol (1:1) in the same manner as described above, and the solution was collected in the tube. […]
After the TLC plate was developed, the size of each band was measured at a wavelength of 570 nm using TLC scanner-II (CAMAG; densitometer).

Human normal fibroblasts = assay: inhibition of oxidative DNA damage, single cell gel electrophoresis (comet assay); type: cell-based; conditions: H2O2 10^-3 M; test material 10 ppm
Protocol: Human normal fibroblasts were cultured for 24 hr and treated with varying concentrations of each of the ginseng berry extract of Example 1 and vitamin E. After 12 hr, the cells were treated with the positive control H2O2 (final concentration: 10^−3M), and then stained by electrophoresis. […] Herein, the image analyzer KOMET 3.1 (Kinetic Imaging, England) was used to analyze the tail length (μm) resulting from the digestion of DNA in each of 25 cells, and the analysis results are shown in Table 3 below.

Compound: Oc1ccc(O)cc1 [Hydroquinone, hydroquinone]
- Skin-color brightness (ΔL*) (human skin): 1.90 ± 0.13
- Melanin production inhibition [1]: 41.1%

Compound: Cc1cc2nc3c(=O)[nH]c(=O)nc-3n(C[C@H](O)[C@H](O)[C@H](O)CO)c2cc1C [Positive control group, riboflavin]
- Conversion: radioactivity in the DHT region/total radioactivity (5-alpha-reductase; 37° C., 30 minutes): 28.7%
- Inhibition of 5-alpha-reductase (5-alpha-reductase; vs conversion of control group): 32.4%

Compound: CC1=C(/C=C/C(C)=C/C=C/C(C)=C/C(=O)O)C(C)(C)CCC1 [retinoic acid]
- Inhibition of lipogenesis [2]: 52%

Compound: OCC(O)CO [Glycerin, glycerin]
- production of ceramide, After 3 days of treatment (ceramide): 102%
- production of ceramide, After 11 days of treatment (ceramide): 94%

Compound: vitamin E
- Inhibition of oxidative damage to DNA (Human normal fibroblasts): 38.9%
- Tail length (Human normal fibroblasts): 70.6 μm
